# Data taken from publication PMC7856883 (Advanced Science, 2020).
# Several values for one entry are separate records, joined by “and”; a condition that tells them apart may be missing. Equal values may be shown once.
# Tested on: A/California/09
# Design: species or system BALB/c mice
# Conditions: mouse, in vivo
compound,measurement,value
CCOC(=O)C1=C[C@@H](OC(CC)CC)[C@H](NC(C)=O)[C@@H](N)C1 [oseltamivir],survival,10/10 and 0 out of 10 and no survival
